Measurements: ChEMBL document CHEMBL1156001, “Synthesis and in vitro DMPK profiling of a 1,2-dioxolane-based library with activity against Plasmodium falciparum” (Bioorg Med Chem Lett, 2009)

Key:
[1] = Octanol-PBS partition coefficient, log D at […] at pH 7.4; type: physicochemical
[2] = Membrane permeability at […] at pH 6.5 to 7.4 after 4 hrs by PAMPA; type: ADME; settings: read-out: permeability
[3] = Intrinsic clearance in rat liver microsomes after 10 to 45 mins by LCMS/MS analysis; type: ADME, Microsome
[4] = Intrinsic clearance in human liver microsomes after 10 to 45 mins by LCMS/MS analysis; type: ADME, Microsome

Row | Structure (SMILES) | logD [1] | Papp at 4 h [2] [×10⁻⁶ cm/s] | microsomal CLint [3] [µL/min/mg] | microsomal CLint [4] [µL/min/mg]
1 | COc1cc(CNC(=O)CC2(C)CC3(CCCCC3)OO2)cc(OC)c1OC (stereo not given) | 2.3 | 54 |  | 
2 | CC1(CC(=O)NCc2ccc3c(c2)OCC3)CC2(CCCCC2)OO1 (stereo not given) | 2.8 |  |  | 
3 | CSc1ccc(CNC(=O)CC2(C)CC3(CCCCC3)OO2)cc1 (stereo not given) | 3.7 | 97 |  | 
4 | CC1(CC(=O)NCc2ccc3c(c2)OCC=CO3)CC2(CCCCC2)OO1 (stereo not given) | 3.1 | 55 |  | 
5 | CC1(CC(=O)NCCNc2ccnc3cc(Cl)ccc23)CC2(CCCCC2)OO1 (stereo not given) | 3.4 | 66 | > 119 | > 72
6 | CC1(CC(=O)NCc2ccc([N+](=O)[O-])cc2)CC2(CCCCC2)OO1 (stereo not given) | 3.4 | 49 |  | 
7 | CC1(CC(=O)NCc2ccc(Oc3ccc(F)cc3)cc2)CC2(CCCCC2)OO1 (stereo not given) | > 3.5 |  |  | 
8 | CC1(CC(=O)NCc2ccc(OC(F)F)cc2)CC2(CCCCC2)OO1 (stereo not given) | 3.1 |  |  | 
9 | CC1(CC(=O)NCc2ccc(-c3cc(Cl)cc(Cl)c3)cc2)CC2(CCCCC2)OO1 (stereo not given) | > 3.5 |  |  | 
10 | CC1(CC(=O)NCc2ccc(OC(F)(F)F)cc2)CC2(CCCCC2)OO1 (stereo not given) | 3.2 |  |  | 
11 | CC1(CC(=O)NCc2cccc(Cl)c2Cl)CC2(CCCCC2)OO1 (stereo not given) | 3.4 |  |  | 
12 | COc1cc(CNC(=O)CC2(C)CC3(CCCCC3)OO2)cc(OC)c1 (stereo not given) | 3.3 | 55 |  | 
13 | CC1(CC(=O)NCc2cccc(I)c2)CC2(CCCCC2)OO1 (stereo not given) | 3.5 |  |  | 
14 | CC1(CC(=O)NCc2ccc(S(N)(=O)=O)cc2)CC2(CCCCC2)OO1 (stereo not given) | 1.4 |  |  | 
15 | COC(=O)c1ccc(CNC(=O)CC2(C)CC3(CCCCC3)OO2)cc1 (stereo not given) | 3.4 | 57 |  | 
16 | CC1(CC(=O)NCc2cccc(C(F)(F)F)c2)CC2(CCCCC2)OO1 (stereo not given) | 4 |  |  | 
17 | COc1cccc(CNC(=O)CC2(C)CC3(CCCCC3)OO2)c1 (stereo not given) | 3.1 | 65 |  | 
18 | CC1(CC(=O)NCc2ccccc2N2CCCCC2)CC2(CCCCC2)OO1 (stereo not given) | > 3.5 | 62 |  | 
19 | CC1(CC(=O)NCc2ccc(Br)cc2F)CC2(CCCCC2)OO1 (stereo not given) | 4.1 |  |  | 
20 | CC1(CC(=O)NCc2ccc(Cl)cc2Cl)CC2(CCCCC2)OO1 (stereo not given) | > 3.5 |  |  | 
21 | CC1(CC(=O)NCc2ccc(C(C)(C)C)cc2)CC2(CCCCC2)OO1 (stereo not given) | 3.5 |  |  | 

Row | Structure (SMILES) | logD [1] | Papp at 4 h [2] [×10⁻⁶ cm/s] | microsomal CLint [3] [µL/min/mg] | microsomal CLint [4] [µL/min/mg]
22 | CC1(CC(=O)NCc2ccccc2Sc2ccccc2CO)CC2(CCCCC2)OO1 (stereo not given) | 4.3 | 77 |  | 
23 | CC1(CC(=O)NCc2ccccc2N)CC2(CCCCC2)OO1 (stereo not given) | 2.5 | 37 |  | 
24 | CC1(CC(=O)NCc2ccncc2)CC2(CCCCC2)OO1 (stereo not given) | 2.1 | 18 |  | 
25 | CC1(CC(=O)NCc2cccc(Cl)c2)CC2(CCCCC2)OO1 (stereo not given) | 3.7 |  |  | 
26 | CC1(CC(=O)NCc2ccc3c(c2)OCCO3)CC2(CCCCC2)OO1 (stereo not given) | 2.7 | 56 |  | 
27 | CC1(CC(=O)NCc2ccccc2OC(F)(F)F)CC2(CCCCC2)OO1 (stereo not given) | 3.3 |  |  | 
28 | CN(C)c1ccc(CNC(=O)CC2(C)CC3(CCCCC3)OO2)cc1 (stereo not given) | 3.1 | 90 |  | 
29 | CC1(CC(=O)NCc2ccc(Oc3cc(C(F)(F)F)cc(C(F)(F)F)c3)cc2)CC2(CCCCC2)OO1 (stereo not given) | 3.2 |  |  | 
30 | CCOc1ccccc1CNC(=O)CC1(C)CC2(CCCCC2)OO1 (stereo not given) | 3.1 | 74 |  | 
31 | Cc1cc(Cl)ccc1CNC(=O)CC1(C)CC2(CCCCC2)OO1 (stereo not given) | 4.2 |  |  | 
32 | CC1(CC(=O)NCc2cccc(Oc3ccc(Cl)cc3)c2)CC2(CCCCC2)OO1 (stereo not given) | 3.2 |  |  | 
33 | CC1(CC(=O)NCc2ccc(-c3ccc(F)cc3)cc2)CC2(CCCCC2)OO1 (stereo not given) | 4.8 |  |  | 
34 | CC(C)(C)OC(=O)Nc1cccc(CCNC(=O)CC2(C)CC3(CCCCC3)OO2)c1 (stereo not given) | 3 |  |  | 
35 | CC1(CC(=O)NCc2ccccn2)CC2(CCCCC2)OO1 (stereo not given) | 2.3 | 33 |  | 
36 | CC1(CC(=O)NCc2ccc(-n3cccc3)cc2)CC2(CCCCC2)OO1 (stereo not given) | 4.3 | 70 |  | 
37 | CC1(CC(=O)NCc2ccc(N3CCOCC3)cc2)CC2(CCCCC2)OO1 (stereo not given) | 2.7 |  |  | 
38 | CC1(CC(=O)NCc2cccc(Br)c2)CC2(CCCCC2)OO1 (stereo not given) | 3.3 |  |  | 
39 | CC1(CC(=O)NCc2ccc(-c3cccs3)cc2)CC2(CCCCC2)OO1 (stereo not given) | 3.7 |  |  | 
40 | CC1(CC(=O)NCc2cccc(-c3ccccc3)c2)CC2(CCCCC2)OO1 (stereo not given) | 3.8 |  |  | 
41 | CC1(CC(=O)NCc2ccc(C(=O)O)cc2)CC2(CCCCC2)OO1 (stereo not given) | 0.3 |  |  | 
